Laboratory results as given in patent US9023789B2, “Amylin analogs and pharmaceutical compositions thereof” (Novo Nordisk A/S, priority 2012, dated 2015).
Numbered stars: 1 amine (or outer) side, 2 acyl side, 3 side chain; on linkers, the order of the positions; unused ones are H or OH. Bridge positions count the residues as written; N and C are the ends. Side chains are listed from the residue outwards. Peptide text beside a SMILES is read from it. * marks the point of attachment. C20 diacid = O=C(O)CCCCCCCCCCCCCCCCCCC(=O)*; γGlu = O=C(O)[C@H](CCC(=O)[*:2])N[*:1]

Columns and labels:
[1] = biological target: T1, human amylin 3(a) receptor (human calcitonin receptor + RAMP-3) in BHK570 cells (Homo sapiens, UniProt O60896+P30988); test: ASSAY (II)a functional assay, human amylin receptor (CRE luciferase); format: cell-based
T1 construct: expressed in transfected cells
Procedure, shortened: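 BHK cells stably carrying a CRE-luciferase reporter plus calcitonin receptor, or calcitonin receptor with RAMP-3 for the amylin 3(a) receptor, were seeded and kept overnight at 37° C. Compounds were added in assay medium with 10% FBS and 10 mM Hepes, pH 7.4, for 3 hours at 37° C, then luminescence was counted.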

[2] = biological target: T2, human calcitonin (a) receptor in BHK570 cells (Homo sapiens, UniProt P30988); test: ASSAY (II)a functional assay, human calcitonin receptor (CRE luciferase); format: cell-based; details: read-out: hCTR funct. EC50
T2 construct: expressed in transfected cells
T2 sequence (P30988 25-474): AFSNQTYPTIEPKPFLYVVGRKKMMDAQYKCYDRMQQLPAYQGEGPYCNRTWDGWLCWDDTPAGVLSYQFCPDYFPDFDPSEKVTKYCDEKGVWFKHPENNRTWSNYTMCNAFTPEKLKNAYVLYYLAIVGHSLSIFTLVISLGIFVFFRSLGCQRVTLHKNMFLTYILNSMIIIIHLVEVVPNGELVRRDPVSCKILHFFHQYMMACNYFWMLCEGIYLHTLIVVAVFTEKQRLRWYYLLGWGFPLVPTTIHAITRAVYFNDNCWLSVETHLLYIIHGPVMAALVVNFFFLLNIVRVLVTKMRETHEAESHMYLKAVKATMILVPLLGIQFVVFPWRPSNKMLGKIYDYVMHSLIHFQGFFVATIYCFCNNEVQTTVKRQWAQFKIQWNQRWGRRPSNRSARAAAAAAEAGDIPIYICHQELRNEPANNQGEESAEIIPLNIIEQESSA
Source text: 1. Luciferase Assay Outline
Activation of calcitonin and amylin (coexpression of calcitonin receptor and receptor activity modifying proteins (RAMP)) receptors lead to increased intracellular concentrations of cAMP. Consequently, transcription is activated by promoters containing multiple copies of the cAMP response element (CRE). It is thus possible to measure amylin activity by the use of a CRE luciferase reporter gene introduced into BHK cells also expressing calcitonin or amylin receptors.
2. Construction of Calcitonin (a)- and Amylin 3(a)-Receptor/CRE-Luc Cell Line.
The cell line was further transfected with RAMP-3, using standard methods. This turns the calcitonin receptor into an amylin 3(a) receptor. Methotrexate, Neomycin, and Hygromycin are selection markers for luciferase, the calcitonin receptor, and RAMP-3, respectively.
To perform activity assays, BHK calcitonin (a) receptor- or amylin 3(a)-receptor/CRE-luc cells were seeded in white 96 well culture plates at a density of about 20.000 cells/well. […] After incubation overnight at 37° C. and 5% CO2, the growth medium was replaced by 50 μl/well assay medium (DMEM (without phenol red), Glutamax™, 10% FBS, and 10 mM Hepes, pH 7.4). Further, 50 μl/well of standard or sample in assay buffer were added. After 3 hours incubation at 37° C. and 5% CO2, the assay medium with standard or sample were removed and replaced by 100 μl/well PBS. Further, 100 μl/well LucLite™ was added. The plates were sealed and incubated at room temperature for 30 minutes. Finally, luminescence was measured on a TopCounter (Packard) in SPC (single photon counting) mode.

[3] = ASSAY (III) ThT fibrillation assay for physical stability; format: physicochemical
Source text: Assay (III)—ThT Fibrillation Assays for the Assessment of Physical Stability of Protein Formulations Low physical stability of a polypeptide may lead to amyloid fibril formation, which is observed as well-ordered, thread-like macromolecular structures in the sample eventually resulting in gel formation. This has traditionally been measured by visual inspection of the sample. However, that kind of measurement is very subjective and depending on the observer. Therefore, the application of a small molecule indicator probe is much more advantageous. Thioflavin T (ThT) is such a probe and has a distinct fluorescence signature when binding to fibrils [Naiki et al. (1989) Anal. […] LeVine (1999) Methods. Enzymol. […], 274-284]. The time course for fibril formation can be described by a sigmoidal curve with the following expression [Nielsen et al. (2001) Biochemistry 40, 6036-6046]; […] Here, F is the ThT fluorescence at the time t. The constant t0 is the time needed to reach 50% of maximum fluorescence. […] Few of those intermediates nucleate to form a template onto which further intermediates may assembly and the fibrillation proceeds. The lag-time corresponds to the interval in which the critical mass of nucleus is built up and the apparent rate constant is the rate with which the fibril itself is formed. Sample Preparation Samples were prepared freshly before each assay. Each sample composition is described in each example. The pH of the sample was adjusted to the desired value using appropriate amounts of concentrated NaOH and HClO4 or HCl. Thioflavin T was added to the samples from a stock solution in H2O to a final concentration of 1 μM. Sample aliquots of 200 μl were placed in a 96 well microtiter plate (Packard OptiPlate™96, white polystyrene). Usually, four or eight replica of each sample (corresponding to one test condition) were placed in one column of wells. The plate was sealed with Scotch Pad (Qiagen). Incubation and Fluorescence Measurement Incubation at given temperature, shaking and measurement of the ThT fluorescence emission were done in a Fluoroskan Ascent FL fluorescence platereader or Varioskan platereader (Thermo Labsystems). The temperature was adjusted to 37° C. The orbital shaking was adjusted to 960 rpm with an amplitude of 1 mm in all the presented data. Fluorescence measurement was done using excitation through a 444 nm filter and measurement of emission through a 485 nm filter. Each run was initiated by incubating the plate at the assay temperature for 10 min. The plate was measured every 20 minutes for a desired period of time. Between each measurement, the plate was shaken and heated as described. Data Handling The measurement points were saved in Microsoft Excel format for further processing and curve drawing and fitting was performed using GraphPad Prism. The background emission from ThT in the absence of fibrils was negligible. The data points are typically a mean of four or eight samples and shown with standard deviation error bars. Only data obtained in the same experiment (i.e. samples on the same plate) are presented in the same graph ensuring a relative measure of fibrillation between experiments. The data set may be fitted to Eq. […] However, since full sigmodial curves in this case are not always achieved during the measurement time, the degree of fibrillation is expressed as ThT fluorescence tabulated as the mean of the samples and shown with the standard deviation at various time points. Measurement of Initial and Final Concentrations The polypeptide concentration in each of the tested formulations were measured both before application in the ThT fibrillation assay (“Initial”) and after completion of the ThT fibrillation (“After ThT assay”). Concentrations were determined by reverse HPLC methods using a pramlintide standard as a reference. Before measurement after completion 150 μl was collected from each of the replica and transferred to an Eppendorf tube. These were centrifuged at 30000 G for 40 mins. […]

[4] = biological target: T3, human amylin receptor (membranes from Amylin 3(a)/CRE-luc cells) (Homo sapiens, UniProt O60896+P30988); test: ASSAY (V) binding to the human amylin receptor (SPA, 125I-rat amylin);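 also: competition binding of cell membranes (35 ng/µL) mixed with SPA beads in 384-well plates at 40 µL total volume, read by scintillation counting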
T3 construct: expressed in transfected cells
T3 sequence (P30988 25-474): T2 sequence (P30988 25-474)
T3 sequence (O60896 24-148 partner): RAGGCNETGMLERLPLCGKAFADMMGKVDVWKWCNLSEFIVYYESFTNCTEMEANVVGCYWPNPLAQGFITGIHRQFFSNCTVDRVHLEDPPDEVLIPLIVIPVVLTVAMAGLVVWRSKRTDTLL

[5] = biological target: T4, human calcitonin receptor (Homo sapiens, UniProt P30988); test: ASSAY (VII) binding to the human calcitonin receptor (SPA, 125I-Calcitonin); details: read-out: hCTR bind IC50;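 also: cell membranes (35 ng/µL) combined with SPA beads in 40 µL of pH 7.4 Hepes buffer, 384-well format, signal counted on a TopCounter instrument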
T4 construct: expressed in transfected cells
T4 sequence (P30988 25-474): T2 sequence (P30988 25-474)

CC[C@H](C)[C@H](NC(=O)[C@H](C)NC(=O)CNC(=O)[C@H](Cc1ccccc1)NC(=O)[C@H](CC(N)=O)NC(=O)[C@@H]1CCCN1C(=O)[C@H](CO)NC(=O)[C@H](CO)NC(=O)[C@H](Cc1c[nH]cn1)NC(=O)[C@H](CCCNC(=N)N)NC(=O)[C@H](CC(C)C)NC(=O)[C@H](Cc1ccccc1)NC(=O)[C@H](CCC(=O)O)NC(=O)[C@H](C)NC(=O)[C@H](CC(C)C)NC(=O)[C@H](CCCNC(=N)N)NC(=O)[C@H](CCC(N)=O)NC(=O)[C@@H](NC(=O)[C@H](C)NC(=O)[C@@H]1CSSC[C@H](NC(=O)[C@@H](N)CCCCNC(=O)CC[C@H](NC(=O)CC[C@H](NC(=O)CCCCCCCCCCCCCCCCCCC(=O)O)C(=O)O)C(=O)O)C(=O)N[C@@H](CC(N)=O)C(=O)N[C@@H]([C@@H](C)O)C(=O)N[C@@H](C)C(=O)N[C@@H]([C@@H](C)O)C(=O)N1)[C@@H](C)O)C(=O)N1CCC[C@H]1C(=O)N[C@@H](CO)C(=O)N[C@@H](CO)C(=O)N[C@H](C(=O)N[C@@H](CC(N)=O)C(=O)N[C@H](C(=O)NCC(=O)N[C@@H](CO)C(=O)N[C@@H](CC(N)=O)C(=O)N[C@H](C(=O)N1CCC[C@H]1C(N)=O)[C@@H](C)O)C(C)C)[C@@H](C)O [Example 13] (H-K([γGlu-γGlu-C20 diacid])CNTATCATQRLAEFLRHSSPNFGAIPSSTNVGSNTP-NH2; disulfide 2-7; N-terminus assumed)
Ratio hCT/hAmylin funct. ([1]; hCTR funct. EC50 / hAmylin-R funct. EC50): 2.2 | Ratio hCT/hAmylin funct. ([1]; hCTR funct. EC50 divided by hAmylin-R funct. EC50): 2.2 | Ratio hCT/hAmylin funct. ([1]; hCTR funct. EC50 over hAmylin-R funct. EC50): 2.2 | EC50 ([1]; human amylin receptor functional potency, assay (II), read-out: hAmylin-R funct. EC50): 0.213 nM | Ratio hCT/hAmylin funct. ([1]; human functional selectivity: hCTR funct. EC50 / hAmylin-R funct. EC50): 2.2 | EC50 [2]: 0.47 nM | ThT pH 4.0 lag time (h) [3]: 45 h | IC50 ([4]; Table 4, read-out: hAmylin-R bind IC50): 0.264 nM | Ratio hCT/hAmylin binding ([4]; Table 5, selectivity, hCTR bind IC50 / hAmylin-R bind IC50): 1.2 | Ratio hCT/hAmylin binding ([4]; Table 7, human binding selectivity, included for comparison): 1.2 | IC50 [5]: 0.305 nM
